# From PubChem BioAssay (NCI)
#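 Cells were grown in 96-well plates and exposed to each compound for 48 hours at five concentrations; endpoints were interpolated linearly between bracketing concentrations, or set to the highest concentration if not reached. TGI: concentration producing complete growth inhibition.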
# Experiments:
# Assay in all cases: NCI anticancer screen, dose series, 48 h
# 786-0 renal = test system: 786-0 renal
# A498 renal = test system: A498 renal
# A549 NSCLC = test system: A549 NSCLC
# ACHN renal = test system: ACHN renal
# BT-549 breast = test system: BT-549 breast
# CAKI-1 renal = test system: CAKI-1 renal
# CCRF-CEM leukemia = test system: CCRF-CEM leukemia
# COLO 205 colon = test system: COLO 205 colon
# DU-145 prostate = test system: DU-145 prostate
# EKVX NSCLC = test system: EKVX NSCLC
# HCC-2998 colon = test system: HCC-2998 colon
# HCT-116 colon = test system: HCT-116 colon
# HCT-15 colon = test system: HCT-15 colon
# HL-60(TB) leukemia = test system: HL-60(TB) leukemia
# HOP-62 NSCLC = test system: HOP-62 NSCLC
# HOP-92 NSCLC = test system: HOP-92 NSCLC
# HS 578T breast = test system: HS 578T breast
# HT29 colon = test system: HT29 colon
# IGROV1 ovarian = test system: IGROV1 ovarian
# K-562 leukemia = test system: K-562 leukemia
# KM12 colon = test system: KM12 colon
# LOX IMVI melanoma = test system: LOX IMVI melanoma
# M14 melanoma = test system: M14 melanoma
# MALME-3M melanoma = test system: MALME-3M melanoma
# MCF7 breast = test system: MCF7 breast
# MDA-MB-231 breast = test system: MDA-MB-231 breast
# MDA-MB-435 = test system: MDA-MB-435
# MDA-N = test system: MDA-N
# MOLT-4 leukemia = test system: MOLT-4 leukemia
# NCI-H226 lung = test system: NCI-H226 lung
# NCI-H23 lung = test system: NCI-H23 lung
# NCI-H460 lung = test system: NCI-H460 lung
# NCI-H522 lung = test system: NCI-H522 lung
# NCI/ADR-RES ovarian = test system: NCI/ADR-RES ovarian
# OVCAR-3 ovarian = test system: OVCAR-3 ovarian
# OVCAR-4 ovarian = test system: OVCAR-4 ovarian
# OVCAR-5 ovarian = test system: OVCAR-5 ovarian
# OVCAR-8 ovarian = test system: OVCAR-8 ovarian
# PC-3 prostate = test system: PC-3 prostate
# RPMI-8226 leukemia = test system: RPMI-8226 leukemia
# RXF 393 renal = test system: RXF 393 renal
# SF-268 CNS = test system: SF-268 CNS
# SF-295 CNS = test system: SF-295 CNS
# SF-539 CNS = test system: SF-539 CNS
# SK-MEL-2 melanoma = test system: SK-MEL-2 melanoma
# SK-MEL-28 melanoma = test system: SK-MEL-28 melanoma
# SK-MEL-5 melanoma = test system: SK-MEL-5 melanoma
# SK-OV-3 ovarian = test system: SK-OV-3 ovarian
# SN12C renal = test system: SN12C renal
# SNB-19 CNS = test system: SNB-19 CNS
# SNB-75 CNS = test system: SNB-75 CNS
# SR leukemia = test system: SR leukemia
# SW-620 colon = test system: SW-620 colon
# T-47D breast = test system: T-47D breast
# TK-10 renal = test system: TK-10 renal
# U251 CNS = test system: U251 CNS
# UACC-257 melanoma = test system: UACC-257 melanoma
# UACC-62 melanoma = test system: UACC-62 melanoma
# UO-31 renal = test system: UO-31 renal
structure (smiles),measurement,setting,value
C=CCCCCNC(=O)C[C@@H]1C2=C(CC[C@H]1O[Si](C)(C)C(C)(C)C)N1C(=O)CCC/C=C\C1C2 (some centres undefined),TGI,786-0 renal,28.7 µM
same,TGI,A498 renal,28.4 µM
same,TGI,A549 NSCLC,25.8 µM
same,TGI,ACHN renal,28.7 µM
same,TGI,BT-549 breast,30.1 µM
same,TGI,CAKI-1 renal,24.8 µM
same,TGI,CCRF-CEM leukemia,25.7 µM
same,TGI,COLO 205 colon,26.7 µM
same,TGI,DU-145 prostate,30.1 µM
same,TGI,EKVX NSCLC,31.1 µM
same,TGI,HCC-2998 colon,22.1 µM
same,TGI,HCT-116 colon,26 µM
same,TGI,HCT-15 colon,27 µM
same,TGI,HL-60(TB) leukemia,13.6 µM
same,TGI,HOP-62 NSCLC,35.5 µM
same,TGI,HOP-92 NSCLC,23.1 µM
same,TGI,HS 578T breast,32.9 µM
same,TGI,HT29 colon,24.7 µM
same,TGI,IGROV1 ovarian,29.7 µM
same,TGI,K-562 leukemia,20.9 µM
same,TGI,KM12 colon,28.2 µM
same,TGI,LOX IMVI melanoma,31.4 µM
same,TGI,M14 melanoma,27.4 µM
same,TGI,MALME-3M melanoma,28.2 µM
same,TGI,MCF7 breast,24.7 µM
same,TGI,MDA-MB-231 breast,26.1 µM
same,TGI,MDA-MB-435,28.4 µM
same,TGI,MDA-N,29.8 µM
same,TGI,MOLT-4 leukemia,20 µM
same,TGI,NCI-H226 lung,29.9 µM
same,TGI,NCI-H23 lung,27.7 µM
same,TGI,NCI-H460 lung,27.9 µM
same,TGI,NCI-H522 lung,24.7 µM
same,TGI,NCI/ADR-RES ovarian,24.7 µM
same,TGI,OVCAR-3 ovarian,28 µM
same,TGI,OVCAR-4 ovarian,25 µM
same,TGI,OVCAR-5 ovarian,29.5 µM
same,TGI,OVCAR-8 ovarian,28.2 µM
same,TGI,PC-3 prostate,24.4 µM
same,TGI,RPMI-8226 leukemia,22.1 µM
same,TGI,RXF 393 renal,23.7 µM
same,TGI,SF-268 CNS,29.9 µM
same,TGI,SF-295 CNS,30.2 µM
same,TGI,SF-539 CNS,31.3 µM
same,TGI,SK-MEL-2 melanoma,26.1 µM
same,TGI,SK-MEL-28 melanoma,29.7 µM
same,TGI,SK-MEL-5 melanoma,27.1 µM
same,TGI,SK-OV-3 ovarian,31.1 µM
same,TGI,SN12C renal,28.8 µM
same,TGI,SNB-19 CNS,27.4 µM
same,TGI,SNB-75 CNS,30.7 µM
same,TGI,SR leukemia,23.4 µM
same,TGI,SW-620 colon,27.4 µM
same,TGI,T-47D breast,29.8 µM
same,TGI,TK-10 renal,29.6 µM
same,TGI,U251 CNS,26.3 µM
same,TGI,UACC-257 melanoma,25.8 µM
same,TGI,UACC-62 melanoma,25.5 µM
same,TGI,UO-31 renal,27.2 µM
